Test results from PubChem BioAssay (NCI).
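48-hour exposure; five concentrations; linearly interpolated endpoints. At the GI50, growth is halved. TGI marks complete inhibition of growth.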

Columns and labels:
Experiment in all cases: inhibition of tumour cell growth, NCI panel, 48 h
OVCAR-8 ovarian = system: OVCAR-8 ovarian
UACC-257 melanoma = system: UACC-257 melanoma
KM12 colon = system: KM12 colon
SNB-75 CNS = system: SNB-75 CNS
IGROV1 ovarian = system: IGROV1 ovarian
HCT-15 colon = system: HCT-15 colon
SK-MEL-5 melanoma = system: SK-MEL-5 melanoma
HOP-92 NSCLC = system: HOP-92 NSCLC
RPMI-8226 leukemia = system: RPMI-8226 leukemia

Row | SMILES | TGI (OVCAR-8 ovarian) [µM] | TGI (UACC-257 melanoma) [µM] | TGI (KM12 colon) [µM] | TGI (SNB-75 CNS) [µM] | TGI (IGROV1 ovarian) [µM] | TGI (HCT-15 colon) [µM] | TGI (SK-MEL-5 melanoma) [µM] | TGI (HOP-92 NSCLC) [µM] | TGI (RPMI-8226 leukemia) [µM] | GI50 (OVCAR-8 ovarian) [µM] | GI50 (HOP-92 NSCLC) [µM] | GI50 (UACC-257 melanoma) [µM] | GI50 (KM12 colon) [µM] | GI50 (SNB-75 CNS) [µM] | GI50 (IGROV1 ovarian) [µM] | GI50 (HCT-15 colon) [µM] | GI50 (SK-MEL-5 melanoma) [µM] | GI50 (RPMI-8226 leukemia) [µM]
1 | O=C(/C=C/c1cccc([N+](=O)[O-])c1)c1ccc([N+](=O)[O-])cc1 | > 100 | > 100 | > 100 | > 100 | > 100 | > 100 | > 100 | – | – | – | – | – | – | – | – | – | – | –
2 | COC(=O)[C@@]12CC(C(C)C)[C@H]3CC(C(=O)C=C1OC)[C@H]32 (some centres undefined) | > 100 | > 100 | > 100 | > 100 | > 100 | > 100 | > 100 | > 100 | > 100 | – | – | – | – | – | – | – | – | –
3 | CN(/N=C/c1ccnc2ccccc12)c1c([N+](=O)[O-])cc([N+](=O)[O-])cc1[N+](=O)[O-] | > 100 | > 100 | > 100 | > 100 | > 100 | > 100 | > 100 | > 100 | > 100 | – | – | – | – | – | – | – | – | –
4 | Clc1cccc(-c2nnc(-c3nn(-c4ccccc4)c4nc5ccccc5nc34)o2)c1 | > 100 | > 100 | > 100 | > 100 | > 100 | > 100 | > 100 | – | > 100 | – | – | – | – | – | – | – | – | –
5 | CC(=O)[CH-]C(=O)c1ccccc1.CC(=O)[CH-]C(=O)c1ccccc1.CC(=O)[CH-]C(=O)c1ccccc1.[Nd+3].[OH3+] | > 100 | > 100 | > 100 | 43.4 | > 100 | > 100 | > 100 | 77.4 | > 100 | 27.2 | 29.5 | 52.1 | 13.4 | 6.66 | 97.9 | 42 | 38.1 | 46.6
6 | O=C1c2ccccc2C2CCC1c1ccccc12 (centres undefined) | > 100 | 76.6 | > 100 | > 100 | > 100 | > 100 | 34.1 | 72.2 | 57 | – | – | – | – | – | – | – | – | –
7 | O=C1C2C3CC(C4C5C=CC(C5)C34)C2C2C3CC(C12)C1C2C=CC(C2)C31 (centres undefined) | > 100 | > 100 | > 100 | > 100 | > 100 | > 100 | > 100 | > 100 | – | – | – | – | – | – | – | – | – | –
8 | N#CC(C(=O)/C(=N\NC(N)=O)C(C#N)c1ccccc1)c1ccccc1 (centres undefined) | > 100 | > 100 | > 100 | > 100 | > 100 | > 100 | – | > 100 | > 100 | – | – | – | – | – | – | – | – | –
9 | COc1cc(/C=N/N=C(\N)NO)c(Cl)cc1O | > 100 | > 100 | > 100 | – | > 100 | > 100 | > 100 | 73.2 | > 100 | – | – | – | – | – | – | – | – | –
10 | Nc1c(Cl)ncnc1NCCCCCCCCCCCCNc1ncnc(Cl)c1N | > 100 | 4.21 | > 100 | 7.16 | > 100 | > 100 | 3.88 | 4.3 | 5.74 | – | – | – | – | – | – | – | – | –
11 | Clc1cccc(C2N3CCCCC3[C@@H]3c4[nH]c5ccccc5c4CCN23)c1 (some centres undefined) | > 100 | 98.2 | – | 85.4 | > 100 | > 100 | 34.1 | > 100 | 81.8 | – | – | – | – | – | – | – | – | –
12 | CCNC(=O)OCc1c(COC(=O)NCC)c(-c2ccc(Cl)c(Cl)c2)n2c1CCC2 | 41.7 | 83.8 | 59 | 27.7 | 48.7 | 36.9 | 29.8 | 24.4 | 27.9 | – | – | – | – | – | – | – | – | –
13 | CC(=O)[C@H]1CCC2[C@@H]3CC=C4C[C@@H]([O-])CC[C@]4(C)C3CC[C@@]21C.CC(=O)[C@H]1CCC2[C@@H]3CC=C4C[C@@H]([O-])CC[C@]4(C)C3CC[C@@]21C.CC(=O)[CH-]C(=O)c1ccccc1.CC(=O)[CH-]C(=O)c1ccccc1.Cl.[Ti+4] (some centres undefined) | 79.2 | 69.7 | > 100 | 66.2 | 87.1 | > 100 | > 100 | – | > 100 | 19.8 | – | 16.2 | 26.4 | 24.4 | 25.9 | 17.6 | 18.3 | 15
14 | COc1ccc(S(=O)(=O)N(CC(=O)O)c2ccccc2)cc1 | > 100 | > 100 | > 100 | > 100 | > 100 | > 100 | > 100 | > 100 | > 100 | – | – | – | – | – | – | – | – | –
15 | O=c1c(Cl)c(Cl)cnn1CCCl | 10.9 | 6.58 | 29.7 | 24.1 | 3.85 | 6.79 | 15.2 | 3.48 | > 47.1 | – | – | – | – | – | – | – | – | –
